Data published in the supplement of paper PMC4862054.

Key:
Details in all cases: incubation time: 72 h
BT-474 [1] = assay: normalised response (% of control), CellTox Green; higher = less cell death (100 = DMSO, 0 = benzethonium chloride kill control)
Outline: (§1)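 Plates were normalised with 0.1 % DMSO as 100 and a positive kill control as 0. Breast cancer cell lines in 20 µl suspension had been seeded into 384-well plates with compound at 5 concentrations in 10-fold steps over a compound-specific 10,000-fold range, incubated 72 h, and read for CellTox Green fluorescence (485/520 nm) followed by CellTiter-Glo luminescence. Each value is the normalised signal at a single concentration.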

BT-549 [2] = assay: as above
Outline: as §1

CAL-120 [3] = assay: as above
Outline: as §1

CAL-148 [4] = assay: as above
Outline: as §1

CAL-51 [5] = assay: as above
Outline: as §1

CAL-85-1 [6] = assay: as above
Outline: as §1

DU-4475 [7] = assay: as above
Outline: as §1

HCC1143 [8] = assay: as above
Outline: as §1

HCC1599 [9] = assay: as above
Outline: as §1

HCC1937 [10] = assay: as above
Outline: as §1

HDQ-P1 [11] = assay: as above
Outline: as §1

Hs578T [12] = assay: as above
Outline: as §1

MCF-10A [13] = assay: as above
Outline: as §1

MDA-MB-231 [14] = assay: as above
Outline: as §1

MDA-MB-436 [15] = assay: as above
Outline: as §1

MDA-MB-453 [16] = assay: as above
Outline: as §1

MDA-MB-468 [17] = assay: as above
Outline: as §1

MFM-223 [18] = assay: as above
Outline: as §1

BT-474 [19] = assay: normalised response (% of control), CellTiter-Glo; higher = more viable cells (100 = DMSO, 0 = benzethonium chloride kill control)
Method: (§2)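 DSRT, 72 h incubation, CellTox Green / CellTiter-Glo readout. Signal is normalised to DMSO and benzethonium chloride controls. Value is the normalised response at the highest dose.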

BT-549 [20] = assay: as above
Method: as §2

CAL-120 [21] = assay: as above
Method: as §2

CAL-148 [22] = assay: as above
Method: as §2

CAL-51 [23] = assay: as above
Method: as §2

CAL-85-1 [24] = assay: as above
Method: as §2

DU-4475 [25] = assay: as above
Method: as §2

HCC1143 [26] = assay: as above
Method: as §2

HCC1599 [27] = assay: as above
Method: as §2

HCC1937 [28] = assay: as above
Method: as §2

HDQ-P1 [29] = assay: as above
Method: as §2

Hs578T [30] = assay: as above
Method: as §2

MCF-10A [31] = assay: as above
Method: as §2

MDA-MB-231 [32] = assay: as above
Method: as §2

MDA-MB-436 [33] = assay: as above
Method: as §2

MDA-MB-453 [34] = assay: as above
Method: as §2

MDA-MB-468 [35] = assay: as above
Method: as §2

MFM-223 [36] = assay: as above
Method: as §2

SK-BR-3 = assay: as above
Method: as §2

CC(C)NC[C@@H](C(=O)N1CCN(c2ncnc3c2[C@H](C)C[C@H]3O)CC1)c1ccc(Cl)cc1 [GDC-0068] (10000 nM)
normalised response (BT-474 [1]): 95.7%
normalised response (BT-549 [2]): 76.8%
normalised response (CAL-120 [3]): 104%
normalised response (CAL-148 [4]): 29.8%
normalised response (CAL-51 [5]): 77.1%
normalised response (CAL-85-1 [6]): 100%
normalised response (DU-4475 [7]): 96.6%
normalised response (HCC1143 [8]): 110%
normalised response (HCC1599 [9]): 95.9%
normalised response (HCC1937 [10]): 97.5%
normalised response (HDQ-P1 [11]): 67.2%
normalised response (Hs578T [12]): 119%
normalised response (MCF-10A [13]): 101%
normalised response (MDA-MB-231 [14]): 124%
normalised response (MDA-MB-436 [15]): 96%
normalised response (MDA-MB-453 [16]): 90.9%
normalised response (MDA-MB-468 [17]): 46.7%
normalised response (MFM-223 [18]): 74.7%
normalised response (BT-474 [19]): 86.6%
normalised response (BT-549 [20]): 55.3%
normalised response (CAL-120 [21]): 70.3%
normalised response (CAL-148 [22]): 3.54%
normalised response (CAL-51 [23]): 36.8%
normalised response (CAL-85-1 [24]): 66.1%
normalised response (DU-4475 [25]): 75.2%
normalised response (HCC1143 [26]): 55.8%
normalised response (HCC1599 [27]): 82.5%
normalised response (HCC1937 [28]): 61.5%
normalised response (HDQ-P1 [29]): 58.3%
normalised response (Hs578T [30]): 65.1%
normalised response (MCF-10A [31]): 58.9%
normalised response (MDA-MB-231 [32]): 89.5%
normalised response (MDA-MB-436 [33]): 77.5%
normalised response (MDA-MB-453 [34]): 29.6%
normalised response (MDA-MB-468 [35]): 43.4%
normalised response (MFM-223 [36]): 23.3%
normalised response (SK-BR-3): 44.3%
